Source: patent publication US4004008A, “O-Tertiary amino-alkyl-N-benzoyl tyrosil amides” (priority 1974, dated 1977)
In brackets after ≈: the same amount, converted by molar mass.

Assays:
[1] = system: rat uterus (oxytocine spasm); assay: Antispastic activity in vitro on rat uterus, spasmiser oxytocine; type: cell-based; conditions: Table 2; ED50 ratio
From the text: (§1) The activities which have been described so far both in vitro and in vivo can be confirmed using different animals or different organs. These activities are further improved if, instead of BaCl2 other spasmisers are used, such as serotoninehistamine and oxytocine (see Table 2).
(§2) The values contained in the table are expressed as comparison between the
(§3) substance being studied, and they therefore express the activity of the
(§4) compounds compared with known, very active substances.

[2] = system: intestinal transit of the charcoal; assay: Vegetable carbon (charcoal) intestinal transit test in vivo; set-up: species or system rat; conditions: for ED50: Rattus norvegicus, iv, 2 h, read-out: Antisp. activity in transit test: ED50; for ED50 / Antisp. activity in transit test: ED50: i.v., rat, charcoal test, 2 hours
Procedure: B. The vegetable carbon method in vivo (charcoal method) which consists of administering by oral means to rats, which have fasted for 24 hours, 0.3ml/per rate of a mixture consisting of: 10g of charcoal and 5 g of gum arabic suspended in a volume of 100 cc of H2 O as well as at the same time the substance being studied, accordingly as desired, generally i.v., s.c., oral. After two hours the animals are killed and those are taken to be negative in which the charcoal has reached the first portion of the colon and the others positive, in the sense that the substance administered has slowed down the intestinal transit of the charcoal.
In effect the animals treated with a physiological solution (checks) are all negative after two hours.
D. I.T.1 is the therapeutic index under the profile of the antispastic activity in vivo, and it is obtained by recording the DL50 (column 2) with the ED50 of the charcoal test (column 3).

stomach and pylorus = assay: Perfusion outflow of stomach and pylorus (gastro-pyloric spasm by morphine); type: in vivo; conditions: i.v.; CR 605 5, CR 725 10, CR 603 12.5 mg/kg; morphine 250 μg
From the text: (§8) The results shown in this table were obtained by perfusing with a physiological solution, the stomach and the bile ducts respectively and collecting the liquid emerging after the pylorus and the sphineter of Oddi.

[3] = system: cavy ileum (serotonine spasm); assay: Antispastic activity in vitro on cavy ileum, spasmiser serotonine; type: cell-based; conditions: Table 2; ED50 ratio
Procedure: (§5) C. The method in vitro is that of Magnus, with the ileum of the cavy, and is in common use for all evaluations. It consists of extracting the ileum from the cavy and placing it in a receptacle which contains nutritive liquid, suitably oxygenated, and registering the movements of the organ which remains alive for several hours if maintained at a temperature of 37°. According to the traditional method followed by us, BaCl2 is put into the bath as a spasmisant: the reaction is a violent contraction of the organ. This contraction can be prevented by adding beforehand pharmaceuticals which inhibit spasms, and in this case our compounds.
as §1, §2, §3, §4

[4] = Acute toxicity (DL50) i.v. in rat; type: in vivo; conditions: in vivo, iv, dose causing death in 50% of the animals
Procedure: (§6) In this table (n. 1) there are recorded the compounds described in the examples with their relative serial numbers, the acute toxicity, the antispastic activity observed in two experimental tests, one "in vivo" and one "in vitro". There are moreover recorded two therapeutic indices which take account of the toxicity of these compounds in relation to their in vivo and in vitro activity. More precisely:
(§7) A. DL50 which, as is known, is the quantity of the substance expressed in mg/kg of animal weight, capable of causing death in 50% of the animals treated.

urinary bladder of a rat = assay: Urinary bladder movement of anaesthetised rat in vivo; conditions: for ED50: read-out: Urinary sac of rat in vivo ED50; for activity in the urinary tract tests: statement on the bladder and ureter tests of Table 3
From the text: The in vivo evaluation was made upon the urinary bladder of a rat anaesthetised and placed in an environment heated to the animals body temperature whilst the bladder which is exposed is linked to a system which registers its movement. The pharmaceutilcals were given to the animals by intravenous means.

rat's ureter = assay: Ureter of rat in vitro; type: cell-based; conditions: for IC50: Rattus norvegicus, read-out: Ureter of rat in vitro ED50
From the text: The in vitro evaluation was made on a rat's ureter suspended in a bath of physiological liquid according to a method similar to the Magnus method already described.

[5] = system: cavy ileum (histamine spasm); assay: Antispastic activity in vitro on cavy ileum, spasmiser histamine; type: cell-based; conditions: Table 2; ED50 ratio
Procedure: as §5, §1, §2, §3, §4

[6] = system: bile ducts (sphincter of Oddi); assay: Perfusion outflow of bile ducts (bile duct spasm by morphine); type: in vivo; conditions: i.v.; CR 605 5, CR 725 10, CR 603 12.5 mg/kg; morphine 250 μg
From the text: as §8

[7] = system: ileum of a cavy (BaCl2 spasm); assay: Antispastic activity in vitro, Magnus method, cavy ileum stimulated with BaCl2; type: cell-based; conditions: for Antispastic activity in vitro, cavy ileum, BaCl2 (relative to papaverine = 1): Table 2, ED50 of test substance papaverine / ED50 of compound; for Antisp. activity in vitro on the ileum of a cavy by Stim. BaCl2: ED50 pap./ED50 CR: ratio to papaverine = 1, Table 1, 37°
Procedure: as §5
The values recorded are expressed as relation between papaverine and the ED50 of our compounds. (As is known, the ED50 is the dose which results in a 50% reduction in spastic contraction).
E. I.T.2 is the therapeutic index under the profile of the antispastic activity in vitro and is given by the product between the in vitro antispastic activity index (column 4) and the corresponding DL50 (column 2).

rat = assay: Acute toxicity (DL50) i.v. in rat; type: in vivo; conditions: dose causing death in 50% of the animals
Procedure: as §6, §7

## CCCN(CCC)C(=O)C(Cc1ccc(OCCN(CC)CC)cc1)NC(=O)c1ccccc1 (racemic) [CR 605, O-(2-diethylamino-ethyl)-N-benzoyl-DL-tyrosil-di-n-propylamide]
[1]
  Antispastic activity in vitro, rat uterus, oxytocine (relative to papaverine = 1): 0.09
[2]
  ED50: 10.6 mg/kg
Stomach and pylorus
  Stomach and pylorus, outflow after the 1st hour: 131.2 mL
  Stomach and pylorus, outflow after the 2nd hour: 132.9 mL
[3]
  Antispastic activity in vitro, cavy ileum, serotonine (relative to methysergide = 1): 0.69
[4]
  LD50: 33.9 mg/kg
Urinary bladder of a rat; intravenous, anaesthetised rat
  ED50: 6.25 mg/kg
rat's ureter
  IC50: 74.2 µg/mL (≈ 159 µM)
[5]
  Antispastic activity in vitro, cavy ileum, histamine (relative to prometazine = 1): 0.17
[6]
  Bile ducts, %age variation between the 1st and 2nd hour: +21.5%
  Bile ducts, outflow after the 1st hour: 46.6 mL
  Bile ducts, outflow after the 2nd hour: 56.6 mL
[7]
  Antispastic activity in vitro, cavy ileum, BaCl2 (relative to papaverine = 1): 1.25
  Antisp. activity in vitro on the ileum of a cavy by Stim. BaCl2: ED50 pap./ED50 CR: 1.25

## CCCN(CCC)C(=O)C(Cc1ccc(OCCN(C)C)cc1)NC(=O)c1ccc(C)cc1 (racemic) [CR 615, O-(2-dimethylamino-ethyl)-N-toluoyl-DL-tyrosil-di-n-propylamide]
[2]
  Antisp. activity in transit test: ED50: inactive
rat
  DL50 in a rat: 48.1 mg/kg
[7]
  Antisp. activity in vitro on the ileum of a cavy by Stim. BaCl2: ED50 pap./ED50 CR: 0.69

## CCCN(CCC)C(=O)C(Cc1ccc(OCCN2CCCC2)cc1)NC(=O)c1ccc(C)cc1 (racemic) [CR 650, O-(2-pyrrolidil-N'-ethyl)-N-toluoyl-DL-tyrosil-di-n-propylamide]
[2]
  Antisp. activity in transit test: ED50: 18.4 mg/kg
rat
  DL50 in a rat: 17.5 mg/kg
[7]
  Antisp. activity in vitro on the ileum of a cavy by Stim. BaCl2: ED50 pap./ED50 CR: 1.17

## CCCN(CCC)C(=O)C(Cc1ccc(OCCN(CC)CC)cc1)NC(=O)c1ccc(Cl)cc1 (racemic) [CR 716, O-(2-diethylamino-ethyl)-N-(p-chloro-benzoyl)-DL-tyrosil-di-n-propylamide]
[1]
  Antispastic activity in vitro, rat uterus, oxytocine (relative to papaverine = 1): 0.06
[2]
  ED50: 26.5 mg/kg
[3]
  Antispastic activity in vitro, cavy ileum, serotonine (relative to methysergide = 1): 0.74
[4]
  LD50: 56.4 mg/kg
[5]
  Antispastic activity in vitro, cavy ileum, histamine (relative to prometazine = 1): 0.08
[7]
  Antispastic activity in vitro, cavy ileum, BaCl2 (relative to papaverine = 1): 1.58
  Antisp. activity in vitro on the ileum of a cavy by Stim. BaCl2: ED50 pap./ED50 CR: 1.58

## CCCN(CCC)C(=O)C(Cc1ccc(OCCCN2CCN(C)CC2)cc1)NC(=O)c1ccc(Cl)cc1 (racemic) [CR 725, O-[3-(N"-methyl-piperazine)-N'-propyl]-N-(p-chloro-benzoyl)-DL-tyrosil-di-n-propylamide]
[1]
  Antispastic activity in vitro, rat uterus, oxytocine (relative to papaverine = 1): 0.18
[2]
  ED50: 12.2 mg/kg
Stomach and pylorus
  Stomach and pylorus, outflow after the 1st hour: 167.2 mL
  Stomach and pylorus, outflow after the 2nd hour: 165.5 mL
[3]
  Antispastic activity in vitro, cavy ileum, serotonine (relative to methysergide = 1): 1.2
[4]
  LD50: 62.6 mg/kg
Urinary bladder of a rat; intravenous, anaesthetised rat
  ED50: 8.32 mg/kg
rat's ureter
  IC50: 27.3 µg/mL (≈ 50.3 µM)
[5]
  Antispastic activity in vitro, cavy ileum, histamine (relative to prometazine = 1): 0.24
[6]
  Bile ducts, outflow after the 1st hour: 49.7 mL
  Bile ducts, outflow after the 2nd hour: 53.2 mL
[7]
  Antispastic activity in vitro, cavy ileum, BaCl2 (relative to papaverine = 1): 3.20
  Antisp. activity in vitro on the ileum of a cavy by Stim. BaCl2: ED50 pap./ED50 CR: 3.20

## CCCCN(CCCC)C(=O)C(Cc1ccc(OCCCN2CCN(C)CC2)cc1)NC(=O)c1ccccc1Cl (racemic) [CR 731, O-[3-(N"-methyl-piperazine)-N'-propyl]-N-(o-chloro-benzoyl)-DL-tyrosil-di-n-butylamide]
[2]
  Antisp. activity in transit test: ED50: 39.4 mg/kg
rat
  DL50 in a rat: 61 mg/kg
[7]
  Antisp. activity in vitro on the ileum of a cavy by Stim. BaCl2: ED50 pap./ED50 CR: 1.75

## CCCN(CCC)C(=O)C(Cc1ccc(OCCN(CC)CC)cc1)NC(=O)c1ccc(C)cc1 (racemic) [CR 807, O-(2-diethylamino-ethyl)-N-toluoyl-DL-tyrosil-di-n-propylamide]
[2]
  Antisp. activity in transit test: ED50: 21 mg/kg
rat
  DL50 in a rat: 31.5 mg/kg
[7]
  Antisp. activity in vitro on the ileum of a cavy by Stim. BaCl2: ED50 pap./ED50 CR: 0.34

## CCCCCCNC(=O)C(Cc1ccc(OCCN2CCCC2)cc1)NC(=O)c1ccc(C)cc1 (racemic) [CR 826, 0-(2-pyrrolidil-N'-ethyl)-N-toluoyl-DL-tyrosil-n-hexylamide]
[2]
  Antisp. activity in transit test: ED50: 17.0 mg/kg
rat
  DL50 in a rat: 41 mg/kg
[7]
  Antisp. activity in vitro on the ileum of a cavy by Stim. BaCl2: ED50 pap./ED50 CR: 1.2

## CN1[C@@H]2CC[C@H]1C[C@@H](OC(=O)C(CO)c1ccccc1)C2 (stereo partly shown) [Atropine, atropine, reference compound]
Urinary bladder of a rat
  activity in the urinary tract tests: inactive
rat's ureter
  Ureter of rat in vitro ED50: inactive

## CCCN(CCC)C(=O)C(Cc1ccc(OCCN(CC)CC)cc1)NC(=O)OCc1ccccc1 [CR 627, O-(2-diethylamino-ethyl)-N-carbobenzoxy-D-tyrosil-di-n-propylamide]
[2]; 120 min
  Antisp. activity in transit test: ED50: 20.8 mg/kg
rat
  DL50 in a rat: 34.0 mg/kg
[7]
  Antisp. activity in vitro on the ileum of a cavy by Stim. BaCl2: ED50 pap./ED50 CR: 1.44

## CCCC[N+]1(C)C2CC(OC(=O)C(CO)c3ccccc3)CC1C1OC12 (stereo not shown) [Joscina-N-butyl-bromide]
Urinary bladder of a rat; intravenous, anaesthetised rat
  Urinary sac of rat in vivo ED50: inactive
Urinary bladder of a rat
  activity in the urinary tract tests: inactive

## CN1CC[C@]23c4c5ccc(O)c4O[C@H]2[C@@H](O)C=C[C@H]3[C@H]1C5 [Morphine, morphine, reference compound]
Stomach and pylorus
  Stomach and pylorus, %age variation between 1st and 2nd hour: -54.5%
[6]
  Bile ducts, %age variation between the 1st and 2nd hour: -48.3%

## COc1ccc(Cc2nccc3cc(OC)c(OC)cc23)cc1OC [Papaverine, papaverine, reference compound]
[2]
  ED50: 22.5 mg/kg
[2]; therapeutic index, DL50 / charcoal ED50, rat i.v.
  I.T.1: DL50/ED50 in vivo: 1.2
[4]
  LD50: 27.2 mg/kg
Urinary bladder of a rat; intravenous, anaesthetised rat
  ED50: 7.59 mg/kg
rat's ureter
  IC50: 45.2 µg/mL (≈ 133 µM)
[7]
  Antisp. activity in vitro on the ileum of a cavy by Stim. BaCl2: ED50 pap./ED50 CR: 1

## O-(3-pyrrolidil-N'-propyl)-N-toluoyl-DL-tyrosil-n-butylamide [CR 797]
[2]
  Antisp. activity in transit test: ED50: 12.0 mg/kg
rat
  DL50 in a rat: 20.6 mg/kg
[7]
  Antisp. activity in vitro on the ileum of a cavy by Stim. BaCl2: ED50 pap./ED50 CR: 1.32
